experiment: RP, Waters ACQUITY UPLC HSS T3, 100 × 2.1 mm, 1.8 µm, 30 °C, 0.3 mL/min, estimated dead time 0.73 min; A: water + 0.1% formic acid, pH 3; B: methanol + 0.1% formic acid, pH 3; gradient (min/%B) 0/0 6/0 56/100 60/100; conditions: stereoisomer not certain

Row | Compound | LC retention time [min]
1 | COc1cc2ccc(=O)oc2c(OC2OC(CO)C(O)C(O)C2O)c1O (stereo not given) [fraxin] | 20.9
2 | O=C(O)c1ccco1 [furan-2-carboxylic acid] | 12.7
3 | O=Cc1ccco1 [furfural] | 12.2
4 | O=c1c(O)c(-c2ccccc2)oc2cc(O)cc(O)c12 [galangin] | 41.4
5 | O=C(O)c1cc(O)c(O)c(O)c1 [gallic acid] | 8.95
6 | COc1ccc(-c2coc3cc(OC)cc(O)c3c2=O)cc1 [genistein-4,7-dimethylether] | 44.8
7 | O=c1c(-c2ccc(O)cc2)coc2cc(O)cc(O)c12 [genistein] | 35.1
8 | O=C(O)c1cc(O)ccc1O [gentisic acid] | 17
9 | CC(C)=CCCC(C)=CCOC(=O)Cc1ccccc1 [geranyl phenylacetate] | 54.6
10 | C=C1CC23CC1(O)CCC2C12C=CC(O)C(C)(C(=O)O1)C2C3C(=O)O (stereo not given) [gibberellic acid] | 25.5
11 | O=P(O)(O)OCC1OC(O)C(O)C(O)C1O (stereo not given) [glucose-6-phosphate] | 1.22
12 | NC(CCC(=O)NC(CSSCC(NC(=O)CCC(N)C(=O)O)C(=O)NCC(=O)O)C(=O)NCC(=O)O)C(=O)O (stereo not given) [glutathione disulfide] | 9.68
13 | COc1ccccc1O [guaiacol] | 22.5
14 | N=C(N)N [guanidine] | 1.3
15 | Nc1nc2nc[nH]c2c(=O)[nH]1 [guanine] | 3.21
16 | COc1ccc(C2CC(=O)c3c(O)cc(O)cc3O2)cc1O (stereo not given) [hesperetin] | 34.8
17 | NCCc1cnc[nH]1 [histamine] | 1.1
18 | O=C(O)c1cc2ccccc2[nH]1 [indole-2-carboxylic acid] | 38.5
19 | O=C(O)c1c[nH]c2ccccc12 [indole-3-carboxylic acid] | 25.6
20 | O=C(O)C(=O)Cc1c[nH]c2ccccc12 [indole-3-pyruvic acid] | 30.3
21 | c1ccc2[nH]ccc2c1 [indole] | 28.1

More lines, now with the values ahead:

Row | LC retention time [min] | Compound
22 | 3.54 | O=C(O)C=CC(=O)O [fumaric acid]
23 | 2.15 | NCCCC(=O)O [gamma-aminobutyric acid]
24 | 3.27 | NC(CCC(=O)NC(CS)C(=O)O)C(=O)O (stereo not given) [gamma-glutamylcysteine]
25 | 24.2 | COC(=O)C1=COC(O)C2C(CO)=CCC12 (stereo not given) [genipin]
26 | 46.5 | CC(=O)CCC=C(C)CCC=C(C)C [geranyl acetone]
27 | 51.3 | CC(C)=CCCC(C)=CCOC(=O)c1ccccc1 [geranyl benzoate]
28 | 36.7 | CC(C)=CCCC(C)=CCOC1OC(CO)C(O)C(O)C1O (stereo not given) [geranyl glucoside]
29 | 48.2 | CCC(=O)OCC=C(C)CCC=C(C)C [geranyl propionate]
30 | 1.4 | O=C(O)C(O)C(O)C(O)C(O)CO (stereo not given) [gluconic acid]
31 | 10.2 | O=C(O)CCCC(=O)O [glutaric acid]
32 | 1.45 | O=C(O)C(O)CO (stereo not given) [glyceric acid]
33 | 1.22 | NCC(=O)O [glycine]
34 | 2.3 | O=C(O)CO [glycolic acid]
35 | 1.3 | O=CC(=O)O [glyoxylic acid]
36 | 30.9 | CCCCCC(=O)O [hexanoic acid]
37 | 15.1 | CCCCCCN [hexylamine]
38 | 17.3 | O=C(O)CNC(=O)c1ccccc1 [hippuric acid]
39 | 46.4 | CC(CCC(=O)O)C1CCC2C3CC(O)C4CC(O)CCC4(C)C3CCC12C (stereo not given) [hyodeoxycholic acid]
40 | 30.3 | O=C(O)CCc1c[nH]c2ccccc12 [indole-3-propionic acid]

Reference: the RepoRT retention time repository (doi:10.1007/s11306-011-0298-z)
